Measurements reported in patent EP4722207A1, “OXOISOINDOLINYL-SUBSTITUTED TETRAHYDROPYRIMIDINEDIONE DERIVATIVE AND USE THEREOF” (Gluetacs Therapeutics (Shanghai) Co., Ltd., priority 2023, dated 2024).

Experiments:
Format in all cases: cell-based
Conditions in all cases: 24 hours of compound treatment, 50 nM and 500 nM
WEE1 = molecular target: T1, WEE1 (Homo sapiens, UniProt P30291+Q96SW2); test: Western-blot assay, substrate protein degradation in hPBMCs: WEE1
T1 construct: effects of the compounds of the present disclosure on the expression of target proteins in cells; endogenous in cells; host or cells: human PBMCs (hPBMCs)

IKZF1 = molecular target: T2, IKZF1 (Homo sapiens, UniProt Q13422+Q96SW2); test: Western-blot assay, substrate protein degradation in hPBMCs: IKZF1
T2 construct: effects of the compounds of the present disclosure on the expression of target proteins in cells; endogenous in cells; host or cells: human PBMCs (hPBMCs)

IKZF2 = molecular target: T3, IKZF2 (Homo sapiens, UniProt Q96SW2+Q9UKS7); test: Western-blot assay, substrate protein degradation in hPBMCs: IKZF2
T3 construct: effects of the compounds of the present disclosure on the expression of target proteins in cells; endogenous in cells; host or cells: human PBMCs (hPBMCs)

IKZF3 = molecular target: T4, IKZF3 (Homo sapiens, UniProt Q96SW2+Q9UKT9); test: Western-blot assay, substrate protein degradation in hPBMCs: IKZF3
T4 construct: effects of the compounds of the present disclosure on the expression of target proteins in cells; endogenous in cells; host or cells: human PBMCs (hPBMCs)

CK1α = molecular target: T5, CK1α (Homo sapiens, UniProt P48729+Q96SW2); test: Western-blot assay, substrate protein degradation in hPBMCs: CK1α
T5 construct: effects of the compounds of the present disclosure on the expression of target proteins in cells; endogenous in cells; host or cells: human PBMCs (hPBMCs)

GSPT1 = molecular target: T6, GSPT1 (Homo sapiens, UniProt P15170+Q96SW2); test: Western-blot assay, substrate protein degradation in hPBMCs: GSPT1
T6 construct: effects of the compounds of the present disclosure on the expression of target proteins in cells; endogenous in cells; host or cells: human PBMCs (hPBMCs)
T6 sequence (P15170 whole entry): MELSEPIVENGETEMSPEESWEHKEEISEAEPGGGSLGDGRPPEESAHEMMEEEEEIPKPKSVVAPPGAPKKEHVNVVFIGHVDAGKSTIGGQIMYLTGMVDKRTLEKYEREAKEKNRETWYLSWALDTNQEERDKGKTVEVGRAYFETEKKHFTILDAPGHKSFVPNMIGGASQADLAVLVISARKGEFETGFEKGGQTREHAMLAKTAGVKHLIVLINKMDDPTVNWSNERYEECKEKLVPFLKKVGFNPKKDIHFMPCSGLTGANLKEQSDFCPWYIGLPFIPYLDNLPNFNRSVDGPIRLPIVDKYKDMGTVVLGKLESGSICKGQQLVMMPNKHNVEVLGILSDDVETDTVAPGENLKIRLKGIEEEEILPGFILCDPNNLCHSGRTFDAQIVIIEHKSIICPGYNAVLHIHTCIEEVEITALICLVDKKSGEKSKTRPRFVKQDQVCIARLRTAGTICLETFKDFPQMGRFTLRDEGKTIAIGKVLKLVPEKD
T6 sequence (Q96SW2 whole entry): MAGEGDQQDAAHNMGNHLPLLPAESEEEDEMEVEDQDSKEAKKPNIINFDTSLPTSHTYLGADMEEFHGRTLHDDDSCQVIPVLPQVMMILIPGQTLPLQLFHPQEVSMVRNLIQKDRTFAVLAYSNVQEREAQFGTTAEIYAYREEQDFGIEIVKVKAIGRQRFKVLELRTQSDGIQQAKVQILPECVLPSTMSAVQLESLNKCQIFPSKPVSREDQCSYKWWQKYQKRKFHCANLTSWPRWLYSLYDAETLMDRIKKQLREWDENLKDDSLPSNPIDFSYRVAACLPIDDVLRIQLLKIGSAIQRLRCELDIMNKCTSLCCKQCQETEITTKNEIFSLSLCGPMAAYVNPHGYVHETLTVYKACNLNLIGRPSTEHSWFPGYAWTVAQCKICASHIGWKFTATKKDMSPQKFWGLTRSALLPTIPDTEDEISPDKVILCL
T6 sequence (Q16531 whole entry partner): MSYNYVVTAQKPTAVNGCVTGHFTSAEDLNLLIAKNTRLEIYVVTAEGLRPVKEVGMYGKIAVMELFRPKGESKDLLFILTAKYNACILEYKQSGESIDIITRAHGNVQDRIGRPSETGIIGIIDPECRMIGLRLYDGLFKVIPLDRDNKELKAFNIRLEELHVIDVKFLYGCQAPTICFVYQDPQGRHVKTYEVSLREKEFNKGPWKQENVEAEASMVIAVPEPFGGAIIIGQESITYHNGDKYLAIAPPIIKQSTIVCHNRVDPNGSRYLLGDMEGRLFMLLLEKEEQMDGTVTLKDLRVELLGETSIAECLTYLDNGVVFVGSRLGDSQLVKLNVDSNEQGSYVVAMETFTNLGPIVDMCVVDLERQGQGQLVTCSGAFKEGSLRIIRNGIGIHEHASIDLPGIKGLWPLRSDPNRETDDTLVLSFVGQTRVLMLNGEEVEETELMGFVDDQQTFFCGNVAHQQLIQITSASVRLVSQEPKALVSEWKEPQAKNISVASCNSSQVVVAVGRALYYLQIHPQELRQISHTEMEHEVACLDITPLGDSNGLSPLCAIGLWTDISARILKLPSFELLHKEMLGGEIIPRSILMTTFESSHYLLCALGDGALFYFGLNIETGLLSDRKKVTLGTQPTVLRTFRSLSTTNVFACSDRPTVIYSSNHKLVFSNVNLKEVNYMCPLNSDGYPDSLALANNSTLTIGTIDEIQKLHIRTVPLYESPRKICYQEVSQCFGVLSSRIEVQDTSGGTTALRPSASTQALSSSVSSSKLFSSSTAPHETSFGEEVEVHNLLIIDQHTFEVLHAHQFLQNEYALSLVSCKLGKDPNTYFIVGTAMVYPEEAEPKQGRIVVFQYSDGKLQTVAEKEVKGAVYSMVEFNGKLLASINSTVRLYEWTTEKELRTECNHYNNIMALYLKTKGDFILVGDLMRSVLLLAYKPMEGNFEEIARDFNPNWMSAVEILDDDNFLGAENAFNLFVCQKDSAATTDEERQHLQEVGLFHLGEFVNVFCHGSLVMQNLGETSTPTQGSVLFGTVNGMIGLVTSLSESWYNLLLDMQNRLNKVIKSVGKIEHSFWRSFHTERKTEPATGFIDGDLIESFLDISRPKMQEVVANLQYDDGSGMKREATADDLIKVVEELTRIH

T5 sequence (P48729 whole entry): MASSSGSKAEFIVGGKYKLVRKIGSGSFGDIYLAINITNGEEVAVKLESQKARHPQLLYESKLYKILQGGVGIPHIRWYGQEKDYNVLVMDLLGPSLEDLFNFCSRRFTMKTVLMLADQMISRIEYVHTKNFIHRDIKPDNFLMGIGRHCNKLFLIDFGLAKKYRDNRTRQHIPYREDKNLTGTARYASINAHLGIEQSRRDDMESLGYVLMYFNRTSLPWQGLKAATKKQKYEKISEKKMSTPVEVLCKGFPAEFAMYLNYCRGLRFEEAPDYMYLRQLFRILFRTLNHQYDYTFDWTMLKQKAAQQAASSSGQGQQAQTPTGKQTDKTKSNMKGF
T5 sequence (Q96SW2 whole entry): as the sequence (Q96SW2 whole entry) above
T5 sequence (Q16531 whole entry partner): as the sequence (Q16531 whole entry partner) above
T4 sequence (Q9UKT9 whole entry): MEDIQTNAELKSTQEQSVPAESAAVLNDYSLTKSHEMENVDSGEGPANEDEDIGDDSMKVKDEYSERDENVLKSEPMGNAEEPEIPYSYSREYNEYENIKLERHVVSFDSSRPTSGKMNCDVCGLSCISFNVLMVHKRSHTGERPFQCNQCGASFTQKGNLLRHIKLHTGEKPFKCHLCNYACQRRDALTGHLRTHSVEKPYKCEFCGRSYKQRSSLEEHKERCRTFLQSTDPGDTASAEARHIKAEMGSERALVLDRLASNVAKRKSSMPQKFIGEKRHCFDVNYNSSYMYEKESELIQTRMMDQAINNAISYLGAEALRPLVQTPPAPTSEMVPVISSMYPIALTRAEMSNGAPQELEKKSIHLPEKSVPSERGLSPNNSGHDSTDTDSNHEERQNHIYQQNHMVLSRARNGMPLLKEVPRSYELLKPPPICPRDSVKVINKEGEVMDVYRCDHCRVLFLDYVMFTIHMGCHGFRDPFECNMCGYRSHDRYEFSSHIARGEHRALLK
T4 sequence (Q96SW2 whole entry): as the sequence (Q96SW2 whole entry) above
T4 sequence (Q16531 whole entry partner): as the sequence (Q16531 whole entry partner) above
T3 sequence (Q9UKS7 whole entry): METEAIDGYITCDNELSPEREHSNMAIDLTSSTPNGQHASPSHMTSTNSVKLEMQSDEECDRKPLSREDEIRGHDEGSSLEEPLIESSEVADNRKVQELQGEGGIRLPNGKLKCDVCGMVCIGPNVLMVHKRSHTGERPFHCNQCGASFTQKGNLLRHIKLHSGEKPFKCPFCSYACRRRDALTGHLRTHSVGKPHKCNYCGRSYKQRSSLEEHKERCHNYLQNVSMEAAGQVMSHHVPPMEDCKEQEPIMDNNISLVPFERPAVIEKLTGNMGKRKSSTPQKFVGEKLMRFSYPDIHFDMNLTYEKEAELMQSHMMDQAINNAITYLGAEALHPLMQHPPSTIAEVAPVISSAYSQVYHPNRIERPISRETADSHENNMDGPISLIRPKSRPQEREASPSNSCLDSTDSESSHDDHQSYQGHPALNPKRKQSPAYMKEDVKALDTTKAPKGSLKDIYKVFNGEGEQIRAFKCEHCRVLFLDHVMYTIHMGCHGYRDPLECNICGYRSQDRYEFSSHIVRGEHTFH
T3 sequence (Q96SW2 whole entry): as the sequence (Q96SW2 whole entry) above
T3 sequence (Q16531 whole entry partner): as the sequence (Q16531 whole entry partner) above
T2 sequence (Q13422 whole entry): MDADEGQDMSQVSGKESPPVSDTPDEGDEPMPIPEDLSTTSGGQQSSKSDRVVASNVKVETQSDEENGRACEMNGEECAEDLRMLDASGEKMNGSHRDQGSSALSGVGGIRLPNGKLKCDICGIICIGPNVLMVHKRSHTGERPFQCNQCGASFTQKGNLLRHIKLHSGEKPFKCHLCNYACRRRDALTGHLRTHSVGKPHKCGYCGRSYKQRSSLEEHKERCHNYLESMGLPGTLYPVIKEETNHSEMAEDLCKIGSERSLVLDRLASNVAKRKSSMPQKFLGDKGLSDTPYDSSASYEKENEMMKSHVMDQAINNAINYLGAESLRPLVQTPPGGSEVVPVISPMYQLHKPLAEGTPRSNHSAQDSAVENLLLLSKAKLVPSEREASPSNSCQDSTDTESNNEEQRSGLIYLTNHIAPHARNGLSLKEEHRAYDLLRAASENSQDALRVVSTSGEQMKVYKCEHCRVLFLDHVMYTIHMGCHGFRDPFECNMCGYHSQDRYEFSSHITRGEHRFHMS
T2 sequence (Q96SW2 whole entry): as the sequence (Q96SW2 whole entry) above
T2 sequence (Q16531 whole entry partner): as the sequence (Q16531 whole entry partner) above

SMILES | substrate protein remaining % WEE1 (WEE1) | substrate protein remaining % IKZF1 (IKZF1) | substrate protein remaining % IKZF2 (IKZF2) | substrate protein remaining % IKZF3 (IKZF3) | substrate protein remaining % CK1α (CK1α) | substrate protein remaining % GSPT1 (GSPT1)
O=C1CCN(N2Cc3cc(CN4CCC(n5c(=O)[nH]c6cc(F)ccc65)CC4)ccc3C2=O)C(=O)N1 [GT-07579, 1-(5-((4-(5-fluoro-2-oxo-2,3-dihydro-1H-benzo[d]imidazol-1-yl)piperidin-1-yl)methyl)-1-oxoisoindolin-2-yl)dihydropyrimidine-2,4(1H,3H)-dione] | A (0% ≤ substrate protein remaining % ≤ 80%) | A (0% ≤ substrate protein remaining % ≤ 80%) | A (0% ≤ substrate protein remaining % ≤ 80%) | B (80%< substrate protein remaining %≤ 100%) | B (80%< substrate protein remaining %≤ 100%) | A (0% ≤ substrate protein remaining % ≤ 80%)
O=C1CCN(N2C(=O)c3ccc(CN4CC=C(c5c[nH]c6cc(F)ccc56)CC4)cc3C2=O)C(=O)N1 [GT-07580, 2-(2,4-dioxotetrahydropyrimidin-1(2H)-yl)-5-((4-(6-fluoro-1H-indol-3-yl)-3,6-dihydropyridin-1(2H)-yl)methyl)isoindoline-1,3-dione] | A (0% ≤ substrate protein remaining % ≤ 80%) | A (0% ≤ substrate protein remaining % ≤ 80%) | A (0% ≤ substrate protein remaining % ≤ 80%) | A (0% ≤ substrate protein remaining % ≤ 80%) | B (80%< substrate protein remaining %≤ 100%) | A (0% ≤ substrate protein remaining % ≤ 80%)
Cn1cc(C2CCN(Cc3ccc4c(c3)C(=O)N(N3CCC(=O)NC3=O)C4=O)CC2)c2ccc(F)cc21 [GT-07581, 2-(2,4-dioxotetrahydropyrimidin-1(2H)-yl)-5-((4-(6-fluoro-1-methyl-1H-indol-3-yl)piperidin-1-yl)methyl)isoindoline-1,3-dione] | A (0% ≤ substrate protein remaining % ≤ 80%) | A (0% ≤ substrate protein remaining % ≤ 80%) | A (0% ≤ substrate protein remaining % ≤ 80%) | B (80%< substrate protein remaining %≤ 100%) | B (80%< substrate protein remaining %≤ 100%) | A (0% ≤ substrate protein remaining % ≤ 80%)
O=C1CCN(N2C(=O)c3ccc(CN4CCC(c5c[nH]c6ncccc56)CC4)cc3C2=O)C(=O)N1 [GT-07582, 5-((4-(1H-pyrrolo[2,3-b]pyridin-3-yl)piperidin-1-yl)methyl)-2-(2,4-dioxotetrahydropyrimidin-1(2H)-yl)isoindoline-1,3-dione] | A (0% ≤ substrate protein remaining % ≤ 80%) | A (0% ≤ substrate protein remaining % ≤ 80%) | A (0% ≤ substrate protein remaining % ≤ 80%) | B (80%< substrate protein remaining %≤ 100%) | B (80%< substrate protein remaining %≤ 100%) | A (0% ≤ substrate protein remaining % ≤ 80%)
O=C1CCN(N2C(=O)c3ccc(CN4CCC(n5c(=O)[nH]c6cc(F)ccc65)CC4)cc3C2=O)C(=O)N1 [GT-07583, 2-(2,4-dioxotetrahydropyrimidin-1(2H)-yl)-5-((4-(5-fluoro-2-oxo-2,3-dihydro-1H-benzo[d]imidazol-1-yl)piperidin-1-yl)methyl)isoindoline-1,3-dione] | A (0% ≤ substrate protein remaining % ≤ 80%) | B (80%< substrate protein remaining %≤ 100%) | B (80%< substrate protein remaining %≤ 100%) | B (80%< substrate protein remaining %≤ 100%) | B (80%< substrate protein remaining %≤ 100%) | A (0% ≤ substrate protein remaining % ≤ 80%)
O=C1CCN(N2Cc3cc(CN4CCC(N5CCCc6cc(F)ccc65)CC4)ccc3C2=O)C(=O)N1 [GT-07584, 1-(5-((4-(6-fluoro-3,4-dihydroquinolin-1(2H)-yl)piperidin-1-yl)methyl)-1-oxoisoindolin-2-yl)dihydropyrimidine-2,4(1H,3H)-dione] | A (0% ≤ substrate protein remaining % ≤ 80%) | A (0% ≤ substrate protein remaining % ≤ 80%) | B (80%< substrate protein remaining %≤ 100%) | B (80%< substrate protein remaining %≤ 100%) | B (80%< substrate protein remaining %≤ 100%) | A (0% ≤ substrate protein remaining % ≤ 80%)
O=C1CCN(N2Cc3cc(CN4CCC(N5CCOc6cc(F)ccc65)CC4)ccc3C2=O)C(=O)N1 [GT-07585, 1-(5-((4-(7-fluoro-2,3-dihydro-4H-benzo[b][1,4]oxazin-4-yl)piperidin-1-yl)methyl)-1-oxoisoindolin-2-yl)dihydropyrimidine-2,4(1H,3H)-dione] | A (0% ≤ substrate protein remaining % ≤ 80%) | A (0% ≤ substrate protein remaining % ≤ 80%) | B (80%< substrate protein remaining %≤ 100%) | B (80%< substrate protein remaining %≤ 100%) | B (80%< substrate protein remaining %≤ 100%) | A (0% ≤ substrate protein remaining % ≤ 80%)
O=C1CCN(N2Cc3cc(CN4CCC(N5C(=O)COc6cc(F)ccc65)CC4)ccc3C2=O)C(=O)N1 [GT-07586, 1-(5-((4-(7-fluoro-3-oxo-2,3-dihydro-4H-benzo[b][1,4]oxazin-4-yl)piperidin-1-yl)methyl)-1-oxoisoindolin-2-yl)dihydropyrimidine-2,4(1H,3H)-dione] | A (0% ≤ substrate protein remaining % ≤ 80%) | A (0% ≤ substrate protein remaining % ≤ 80%) | B (80%< substrate protein remaining %≤ 100%) | B (80%< substrate protein remaining %≤ 100%) | B (80%< substrate protein remaining %≤ 100%) | A (0% ≤ substrate protein remaining % ≤ 80%)
O=C1CCN(N2Cc3cc(CN4CCC(C5CCOc6cc(F)ccc65)CC4)ccc3C2=O)C(=O)N1 (stereo not drawn) [GT-07587, 1-(5-((4-(7-fluorochroman-4-yl)piperidin-1-yl)methyl)-1-oxoisoindolin-2-yl)dihydropyrimidine-2,4(1H,3H)-dione] | A (0% ≤ substrate protein remaining % ≤ 80%) | A (0% ≤ substrate protein remaining % ≤ 80%) | B (80%< substrate protein remaining %≤ 100%) | B (80%< substrate protein remaining %≤ 100%) | B (80%< substrate protein remaining %≤ 100%) | A (0% ≤ substrate protein remaining % ≤ 80%)
O=C1CCN(N2Cc3cc(CN4CCC(=C5CCOc6cc(F)ccc65)CC4)ccc3C2=O)C(=O)N1 [GT-07588, 1-(5-((4-(7-fluorochroman-4-ylidene)piperidin-1-yl)methyl)-1-oxoisoindolin-2-yl)dihydropyrimidine-2,4(1H,3H)-dione] | B (80%< substrate protein remaining %≤ 100%) | B (80%< substrate protein remaining %≤ 100%) | B (80%< substrate protein remaining %≤ 100%) | B (80%< substrate protein remaining %≤ 100%) | B (80%< substrate protein remaining %≤ 100%) | A (0% ≤ substrate protein remaining % ≤ 80%)
O=C1CCN(N2Cc3cc(CN4CCC(c5cccc6c(F)cccc56)CC4)ccc3C2=O)C(=O)N1 [GT-07589, 1-(5-((4-(5-fluoronaphthalen-1-yl)piperidin-1-yl)methyl)-1-oxoisoindolin-2-yl)dihydropyrimidine-2,4(1H,3H)-dione] | B (80%< substrate protein remaining %≤ 100%) | B (80%< substrate protein remaining %≤ 100%) | B (80%< substrate protein remaining %≤ 100%) | B (80%< substrate protein remaining %≤ 100%) | B (80%< substrate protein remaining %≤ 100%) | A (0% ≤ substrate protein remaining % ≤ 80%)
O=C1CCN(N2Cc3cc(CN4CCC(c5noc6ccccc56)CC4)ccc3C2=O)C(=O)N1 [GT-07642, 1-(5-((4-(benzo[d]isoxazol-3-yl)piperidin-1-yl)methyl)-1-oxoisoindolin-2-yl)dihydropyrimidine-2,4(1H,3H)-dione] | B (80%< substrate protein remaining %≤ 100%) | B (80%< substrate protein remaining %≤ 100%) | B (80%< substrate protein remaining %≤ 100%) | B (80%< substrate protein remaining %≤ 100%) | B (80%< substrate protein remaining %≤ 100%) | A (0% ≤ substrate protein remaining % ≤ 80%)
